# Test results published in the METLIN SMRT retention time set (Domingo-Almenara et al. 2019).
# Assay: gradient 5% acetonitrile 3 min, to 50% in 2 min, to 85% in 15 min, held 3 min, 100 µL/min
# Conditions: column: Zorbax Extend-C18 2.1 x 50 mm; eluents: water / acetonitrile, 0.1% formic acid
# Summary of the method: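 Values are retention times taken from adduct peaks that software picked and an analyst inspected. The pure standards were run as mixtures of ~100 molecules on HPLC linked to a quadrupole time-of-flight mass spectrometer, in positive and negative ionization mode. A Zorbax Extend-C18 column (2.1 × 50 mm, 1.8 μm) was used at 100 μL/min with water and acetonitrile, each including 0.1% formic acid.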
row,RP-LC retention time [s],SMILES
1,806,Cc1cc2c(c(=O)n(-c3ccccc3)c(=O)n2CC(=O)N(C)c2ccccc2)n1C
2,722,O=C(Cc1nnc2c(-c3nc(C4CC4)no3)cccn12)N1CCc2ccccc2C1
3,697,Cc1nnc2sc(SCc3ccc([N+](=O)[O-])cc3)nn2c1=O
4,706,COc1ccc(OC)c(NC(=O)NCCc2nc3cccnc3n2C2CCCC2)c1
5,1070,Cc1nn(-c2ccccc2)c(C)c1S(=O)(=O)N1CCC(C(=O)Nc2ccc(Cl)cc2F)CC1
6,981,CCOc1ccc(-n2ccnc(NC(=O)Nc3ccccc3)c2=O)cc1
7,551,CN(C)CCNC(=O)C1CCc2sc(C(=O)N3CCOCC3)cc2C1 (stereo not drawn)
8,651,COc1ccc(CNC(=O)Cn2nc3c4ccccc4ncn3c2=O)cc1
9,998,CCOC(=O)c1nc(Nc2ccc(OCC(C)C)cc2)c2ccccc2n1
10,565,CCn1cc(S(=O)(=O)N2CC(N(C)Cc3cccnc3)C2)cn1
11,777,Cc1cccc(N2CCN(c3cc(C(=O)O)c4cc(NC(=O)C5CCC5)ccc4n3)CC2)c1C
12,565,Cc1ccn2cc(C(=O)NCCN3CCc4ccccc4C3)nc2c1
13,829,Cc1[nH]c2ccccc2c1C(=O)CSc1nnc2sc3ccccc3n12
14,736,CCN1CCn2cc(S(=O)(=O)Nc3cccc(C)c3)cc2C1=O
15,682,O=C(Cn1c(=O)oc2ccccc21)N1CCc2nn(CC3CC3)c(=O)n2CC1
16,653,O=C(NC1CC1)c1ccc(-n2cccn2)nc1
17,900,O=C(NCCc1ccccc1)N1CCc2nc(-c3ccc(F)cc3)ncc2C1
18,678,Cc1noc(-c2ccc(-n3cnc(C(=O)NCCc4ccccc4)c3)nc2)n1
19,1240,CCOc1ccc(-c2noc(-c3nn(-c4ccc(F)cc4)c(=O)c4ccccc34)n2)cc1OC
20,957,CC(C)CCN1N=C(C(=O)N2CCOCC2)S(=O)(=O)c2ccc(Cl)cc21
21,853,Cc1ccc(C(=O)N2C[C@H](c3nc(-c4cccnc4)no3)[C@@H](C)C2)c(C)c1
22,1100,COC(=O)c1cc(C)nc2c1c(=O)n(Cc1cccc(F)c1)c(=O)n2Cc1ccco1

row,RP-LC retention time [s],SMILES
1,1330,Clc1ccccc1N1CCN(c2nccn3nc(-c4ccccc4)cc23)CC1
2,933,Fc1cccc(CNc2nnc(-c3nnc(C4CC4)o3)c3ccccc23)c1
3,794,COc1ccc(NC(=O)Cn2nc(N3CCOCC3)c3ccccc3c2=O)cc1Cl
4,797,COc1cccc(C(=O)CSc2ccc(NC(=O)C3CC3)nn2)c1
5,757,Cc1cc(C)c(NC(=O)Cn2nc3c(N4CCCCCC4)nccn3c2=O)c(C)c1
6,713,Cc1cc(N2CCCCC2)nc(N2CCN(C(=O)C3CCCC3)CC2)n1
7,1200,COc1ccccc1-c1nc2n(n1)C1(CCCCC1)[C@@H]1CCCC[C@@H]1N2C(=O)c1ccco1
8,972,CCc1ccc(NC(=O)Cc2c(C)nn(-c3nc(-c4ccc(Cl)cc4)cs3)c2C)cc1
9,603,OCCn1cc(-c2ccc3c(c2)CC/C3=N\O)c(-c2ccncc2)n1
10,996,O=C(Nc1ccc(F)cc1)C1CCCN(c2nc3ccsc3c(=O)n2Cc2ccc(F)cc2)C1 (stereo not drawn)
11,1060,Cc1csc(-c2cc(S(=O)(=O)NCc3ccc(OC(C)C)cc3)c(C)s2)n1
12,972,CC1Cc2ccccc2N1Cc1nnc(-c2ccccc2)o1 (stereo not drawn)
13,634,CCN(CCN(C)C)c1ccc(C(=O)O)cc1NS(=O)(=O)c1cc(F)ccc1C
14,639,CCNc1cc(N2CCCC(CCC(=O)NCCc3cccs3)C2)ncn1 (stereo not drawn)
15,641,Cn1cc(S(=O)(=O)N2CCC(C(=O)NC3CC3)CC2)cc1C(=O)N1CCCC1
16,616,O=C(Nc1ccc2nc(N3CCCN(c4ncccn4)CC3)cc(C(=O)O)c2c1)c1ccc(F)cc1
17,922,CCC(=O)N(Cc1ccc(F)cc1)C(C)C(=O)c1c(C)c(C(=O)OC)n(C)c1C (stereo not drawn)
18,602,CCN(CC)CCCNC(=O)Cn1c(=O)c2cccn2c2ccccc21
19,696,CCCNc1cc(N2CCC(CCC(=O)NCc3cccc(F)c3)CC2)ncn1
20,773,O=C(Cn1ccc2ccc(N3CCOCC3)nc21)NCc1ccco1
21,1090,O=C(C1CCCCN1S(=O)(=O)c1ccc(F)cc1)N1CCc2ccccc21 (stereo not drawn)
22,630,Cc1c2c(cc3c1[nH]c1ccccc13)C=NCC2

row,RP-LC retention time [s],SMILES
1,994,CCCOC(=O)C1=C(C)NC2=C(C(=O)C(C(=O)OC)C(C)C2)C1c1cccc(F)c1 (stereo not drawn)
2,998,CCc1cccc(NC(=O)CN2C(=O)CCc3cc(S(=O)(=O)N4CCCCC4C)ccc32)c1 (stereo not drawn)
3,756,COCCNC(=O)CN1c2ccc(F)cc2-c2ccccc2S1(=O)=O
4,802,CC(C)NC(=O)N1CCCCCC1c1nc(C2CC2)no1 (stereo not drawn)
5,1100,Cc1nnc(-c2cc3ccccc3n2Cc2ccccc2Cl)o1
6,675,COc1cc(Nc2c(C#N)cnc3cc(OCCCN4CCN(C)CC4)c(OC)cc23)c(Cl)cc1Cl
7,779,COc1ccccc1NC(=O)C1CCN(S(=O)(=O)c2cc(C(=O)N3CCOCC3)cs2)CC1
8,725,CCn1ccc(C(=O)N2CC(c3nc(CCOCC4CC4)no3)C2)n1
9,724,CSc1ccc(Cl)c(C(=O)NCCc2cn(C)c3ncccc23)c1
10,561,CC(C)CCNC(=O)C1CCN(c2cncnc2N2CCN(C)CC2)CC1
11,671,CCCCS(=O)(=O)N1CCC2(CC1)C(=O)N(C)C(=O)N2C
12,788,Cc1[nH]c(C)c(S(=O)(=O)N2CCC(C(=O)Nc3ccc(Cl)cc3)CC2)c1C(=O)N1CCCC1
13,1200,Cc1ccccc1-c1noc(Cn2c(=O)n(CCc3ccccc3)c(=O)c3sccc32)n1
14,1120,CCn1cc(C(=O)NCc2ccccc2C)c(S(=O)(=O)N2CCSCC2)n1
15,709,CCCn1cc(CNC(=O)C2CCCN(c3nnc4ccc(C(F)(F)F)cn34)C2)c(C)n1 (stereo not drawn)
16,967,CCN1C(=O)c2ccccc2Oc2ccc(C(=O)NC3CCCCC3)cc21
17,655,O=C(Cn1cnc2nc(N3CCC(C(=O)NC4CC4)CC3)sc2c1=O)Nc1cccc(F)c1
18,894,Cc1ccc2c(=O)c(C(=O)Nc3ccc(C)c(C)c3)c[nH]c2n1
19,744,CCc1ccccc1NC(=O)Cn1nc(N2CCOCC2)c2ccccc2c1=O
20,610,O=C(NCc1ccc(-n2ccnc2)cc1)c1ccccc1C(F)(F)F
21,953,CCc1nc(N2CCc3ccccc3C2)ncc1C(=O)O
22,574,NC(=O)c1cc[nH]c1C1CCCN(S(=O)(=O)c2cnc[nH]2)C1 (stereo not drawn)

row,RP-LC retention time [s],SMILES
1,640,O=S(=O)(c1cc(-c2nnc(C3CC3)o2)co1)N1CCN(C2CCCCC2)CC1
2,673,COc1ccc(NC(=O)c2c[nH]c3ncccc23)cc1
3,599,CCN(CC)CCNC(=O)C1c2ccccc2C(=O)N2CCc3cc(OC)c(OC)cc3C12 (stereo not drawn)
4,641,COc1ccc(CCNC(=O)Cn2nc3n(c2=O)CCCCC3)cc1OC
5,728,CCc1ccc(NC(=O)N2C[C@@H](F)C[C@H]2C(=O)N2CCCCC2)cc1
6,780,COc1ccc(NC(=O)c2ccc(-n3cnc(NC(=O)C4CC4)c3)cc2)cc1Cl
7,637,CCC(=O)N1CCc2cc(N3CC(C(=O)NCc4ccc(Cl)cc4)CC3=O)ccc21 (stereo not drawn)
8,703,COc1cccc(NC(=O)N2CC(c3nc(C)no3)C3(CCOCC3)C2)c1 (stereo not drawn)
9,987,CN(C)S(=O)(=O)c1ccc2c(c1)N(CC(=O)NCc1ccccc1)C(=O)C1CCCCN21 (stereo not drawn)
10,686,Cc1ccc(-n2c(N)cc(=O)nc2SCC(=O)Nc2nc3ccc(C)cc3s2)cc1
11,629,CCOC(=O)C1CCCN(C(=O)c2ccc(SCCN3CCCCC3)nc2)C1 (stereo not drawn)
12,575,O=C(c1cc(Br)ccc1Cl)N1CCN(c2ccc(-n3ccnc3)nn2)CC1
13,911,CC1CCCN(c2nccn3c(=O)n(CC(=O)Nc4ccc(Br)cc4F)nc23)C1 (stereo not drawn)
14,791,O=C(Nc1ccc(F)cc1)C1CCN(C(=O)c2ncn3c2COC(c2ccccc2)C3)CC1 (stereo not drawn)
15,977,Cc1nc(-c2cccc(-c3noc(CNS(=O)(=O)c4ccccc4)n3)c2)cs1
16,586,Cc1cnc(C(=O)N2CCC(N3CC(OCC4CC4)C34CCOCC4)CC2)cn1 (stereo not drawn)
17,884,CCOc1ccc(-c2[nH]ncc2CNS(=O)(=O)c2ccccc2CC)cc1
18,744,CCN1C(=O)COc2ccc(-c3noc(C4CCN(C(C)=O)CC4)n3)cc21
19,1010,Cc1ccc(C)c(C(=O)Nc2cccn3nc(C(C)C)nc23)c1
20,643,CCCN1CCN(C(=O)C2=NN(c3ccc(C)cc3)c3ncccc3S2(=O)=O)CC1
21,874,CCCc1cc(C2CCCN2C(=O)NCCc2ccccc2)no1 (stereo not drawn)

row,SMILES,RP-LC retention time [s]
1,C[C@@H]1CCC2(NC1)O[C@H]1C[C@H]3[C@@H]4CC=C5C[C@@H](O)CC[C@]5(C)[C@H]4CC[C@]3(C)[C@H]1[C@H]2C (stereo partly drawn),757
